Experimental data: ChEMBL document CHEMBL2429842, “Phthaloyl amino acids as anti-inflammatory and immunomodulatory prototypes” (Med Chem Res, 2013)
Active and inactive are the calls of the source. No cut-off for these calls is given here.

Columns and labels:
[1] = tested on: Peritoneal macrophage cell; assay: Immunomodulatory activity mouse peritoneal macrophages assessed as inhibition of LPS-induced IL-1beta production at 50 uM after 24 hrs by ELISA; type: functional, cell-based
[2] = tested on: Peritoneal macrophage cell; assay: Immunomodulatory activity mouse peritoneal macrophages assessed as inhibition of LPS-induced TNFalpha production at 50 uM after 24 hrs by ELISA; type: functional, cell-based
SF-295 = assay: Antiproliferative activity against human SF295 cells at 25 ug/ml after 48 hrs by MTT assay; type: functional; details: SF-295, 48 h
HCT-8 = assay: Antiproliferative activity against human HCT8 cells at 25 ug/ml after 48 hrs by MTT assay; type: functional; details: HCT-8, 48 h
MDA-MB-435 = assay: Antiproliferative activity against human MDA-MB-435 cells at 25 ug/ml after 48 hrs by MTT assay; type: functional; details: MDA-MB-435, 48 h
[3] = Cytotoxicity against BALB/c mouse splenocytes assessed as cell viability after 24 hrs by [3H]-thymidine incorporation assay; type: cell-based, Splenocyte; parameters: concentration or dose not given beside the values; details: read-out: Activity
Splenocyte [4] = assay: Immunomodulatory activity in BALB/c mouse splenocytes assessed as inhibition of LPS-induced nitric oxide production at 25 ug/ml after 72 hrs by Griess method relative to control; type: functional
Splenocyte [5] = assay: Immunomodulatory activity in BALB/c mouse splenocytes assessed as inhibition of LPS-induced nitric oxide production at 50 ug/ml after 72 hrs by Griess method relative to control; type: functional
[6] = Cytotoxicity against BALB/c mouse splenocytes assessed as highest nontoxic concentration after 24 hrs by [3H]-thymidine incorporation assay; type: cell-based, Splenocyte; details: read-out: Activity
Mus musculus [7] = assay: Antiinflammatory activity in carrageenan-induced air pouch mouse model assessed as inhibition of leukocyte migration from blood circulation into air pouches at 100 mg/kg, po administered 1 hr before carrageenan challenge measured after 6 hrs relative to control; type: functional
Mus musculus [8] = assay: Antiinflammatory activity in carrageenan-induced air pouch mouse model assessed as inhibition of leukocyte migration from blood circulation into air pouches at 10 mg/kg, po administered 1 hr before carrageenan challenge measured after 6 hrs relative to control; type: functional
Mus musculus [9] = assay: Immunomodulatory activity in carrageenan-induced air pouch mouse model assessed as reduction of nitric oxide production in air pouch at 10 mg/kg, po by Griess method; type: functional, organism-based; parameters: dose 10 mg/kg

O=C(O)CN1C(=O)c2ccccc2C1=O
inhibition [1]: Active | inhibition [2]: Active | inhibition at 25 µg/mL (SF-295): 3.98% | inhibition at 25 µg/mL (HCT-8): -0.61% | inhibition at 25 µg/mL (MDA-MB-435): -4.72% | viability at 24 h [3]: 25.6% | Activity (Splenocyte [4]): 4.2 µg/mL | Activity (Splenocyte [5]): 3.6 µg/mL | MNTC at 24 h [6]: 50 µg/mL | inhibition in vivo at 100 mg/kg (Mus musculus [7]): 47.7%

COc1cccc2c1C(=O)c1c(O)c3c(c(O)c1C2=O)C[C@@](O)(C(=O)CO)C[C@@H]3O[C@H]1C[C@H](N)[C@H](O)[C@H](C)O1 [DOXORUBICIN]
inhibition at 25 µg/mL (SF-295): 81.4% | inhibition at 25 µg/mL (HCT-8): 97.1% | inhibition at 25 µg/mL (MDA-MB-435): 94.6%

CC[C@H](C)[C@@H](C(=O)O)N1C(=O)c2ccccc2C1=O
inhibition at 25 µg/mL (SF-295): 20% | inhibition at 25 µg/mL (HCT-8): 15% | inhibition at 25 µg/mL (MDA-MB-435): 14.9% | inhibition in vivo at 10 mg/kg (Mus musculus [8]): 64.7% | viability at 24 h [3]: 26.1% | Activity (Splenocyte [4]): 3.1 µg/mL | Activity (Splenocyte [5]): 2.3 µg/mL | MNTC at 24 h [6]: 12.5 µg/mL | inhibition in vivo at 100 mg/kg (Mus musculus [7]): 67.5%

CC(C)[C@@H](C(=O)O)N1C(=O)c2ccccc2C1=O
inhibition at 25 µg/mL (SF-295): 2.74% | inhibition at 25 µg/mL (HCT-8): 4.28% | inhibition at 25 µg/mL (MDA-MB-435): 7.82% | viability at 24 h [3]: 24.7% | Activity (Splenocyte [4]): 6.4 µg/mL | Activity (Splenocyte [5]): 2.7 µg/mL | MNTC at 24 h [6]: 25 µg/mL | inhibition in vivo at 100 mg/kg (Mus musculus [7]): 57.8%

O=C(O)[C@H](Cc1c[nH]c2ccccc12)N1C(=O)c2ccccc2C1=O
inhibition [1]: Active | inhibition [2]: Active | inhibition at 25 µg/mL (SF-295): 24.5% | inhibition at 25 µg/mL (HCT-8): 10.4% | inhibition at 25 µg/mL (MDA-MB-435): 13.8% | Activity (Mus musculus [9]): Active | viability at 24 h [3]: 27.6% | Activity (Splenocyte [4]): 1.3 µg/mL | Activity (Splenocyte [5]): 2.1 µg/mL | MNTC at 24 h [6]: 50 µg/mL | inhibition in vivo at 100 mg/kg (Mus musculus [7]): 43.8%

O=C(O)CCN1C(=O)c2ccccc2C1=O
inhibition at 25 µg/mL (SF-295): 12.6% | inhibition at 25 µg/mL (HCT-8): 18.9% | inhibition at 25 µg/mL (MDA-MB-435): -3.71% | viability at 24 h [3]: 22.2% | Activity (Splenocyte [4]): 3.6 µg/mL | Activity (Splenocyte [5]): 4.4 µg/mL | MNTC at 24 h [6]: 50 µg/mL | inhibition in vivo at 100 mg/kg (Mus musculus [7]): 54.2%

O=C(O)[C@H](Cc1ccccc1)N1C(=O)c2ccccc2C1=O
inhibition [1]: Active | inhibition at 25 µg/mL (SF-295): 13.5% | inhibition at 25 µg/mL (HCT-8): -7.23% | inhibition at 25 µg/mL (MDA-MB-435): 11.7% | viability at 24 h [3]: 21.5% | Activity (Splenocyte [4]): 2.3 µg/mL | Activity (Splenocyte [5]): 0.7 µg/mL | MNTC at 24 h [6]: 25 µg/mL | inhibition in vivo at 100 mg/kg (Mus musculus [7]): 64.2%

C[C@@H](C(=O)O)N1C(=O)c2ccccc2C1=O
inhibition at 25 µg/mL (SF-295): 12.2% | inhibition at 25 µg/mL (HCT-8): 6.11% | inhibition at 25 µg/mL (MDA-MB-435): 5.01% | Activity (Splenocyte [4]): 2.1 µg/mL | Activity (Splenocyte [5]): 1.5 µg/mL | MNTC at 24 h [6]: > 100 µg/mL | inhibition in vivo at 100 mg/kg (Mus musculus [7]): 38.4%

O=C1CCC(N2C(=O)c3ccccc3C2=O)C(=O)N1 (centres undefined) [THALIDOMIDE]
inhibition in vivo at 10 mg/kg (Mus musculus [8]): 76.3% | Activity (Mus musculus [9]): Active | Activity (Splenocyte [4]): 3.6 µg/mL | Activity (Splenocyte [5]): 3.6 µg/mL | MNTC at 24 h [6]: > 100 µg/mL | inhibition in vivo at 100 mg/kg (Mus musculus [7]): 72.1%

O=C(O)CC[C@@H](C(=O)O)N1C(=O)c2ccccc2C1=O
inhibition at 25 µg/mL (SF-295): 14.4% | inhibition at 25 µg/mL (HCT-8): 6.52% | inhibition at 25 µg/mL (MDA-MB-435): 12.9% | viability at 24 h [3]: 8.75% | Activity (Splenocyte [4]): 2.9 µg/mL | Activity (Splenocyte [5]): 3.4 µg/mL | MNTC at 24 h [6]: 50 µg/mL | inhibition in vivo at 100 mg/kg (Mus musculus [7]): 61.7%
